Paper PMC8206213, “An L-2-hydroxyglutarate biosensor based on specific transcriptional regulator LhgR” (Nature Communications, 2021)
Values joined by “and” are separate entries in the source; they are usually repeats but may differ in a detail not shown here. Identical values can stand only once.

Assay: LHGFR expressed in E. coli BL21(DE3), response to exogenous L-2-HG (time course and dose-response)
Format: cell-based
Conditions: Fig. 5a
Experimental: To characterize the sensitivity and specificity of LHGFR expressed in E. coli BL21(DE3), 90 μL cell suspensions following 8 h carbon starvation were mixed with 10 μL increasing concentrations of L-2-HG or other compounds, and then added into a black 96-well plate (total 100 μL/per well), the fluorescence intensities were determined using an EnSight microplate reader (PerkinElmer, USA) and the following instrument settings: excitation at 430 nm, emission at 485 nm (mTFP) and 528 nm (Venus), time intervals of 5 min, the temperature at 37 °C, and shake at 180 rpm.

Q: What does the source list for `O=C(O)CC[C@H](O)C(=O)O` [L-2-HG, L-2-Hydroxyglutarate]?
A: Emission ratio (0.1 μM L-2-HG, 0 min): 1.012 and 0.989 and 0.997; Emission ratio (0.1 μM L-2-HG, 5 min): 1.02 and 0.9981 and 1.004; Emission ratio (0.1 μM L-2-HG, 10 min): 1.016 and 1.0025 and 1.009; Emission ratio (0.1 μM L-2-HG, 15 min): 1.023 and 1.007 and 1.026; Emission ratio (0.1 μM L-2-HG, 20 min): 1.034 and 1.009 and 1.038; Emission ratio (0.1 μM L-2-HG, 25 min): 1.022 and 1.0081 and 1.026; Emission ratio (0.1 μM L-2-HG, 30 min): 1.026 and 1.01 and 1.02; Emission ratio (0.1 μM L-2-HG, 35 min): 1.021 and 1.007 and 1.025; Emission ratio (0.1 μM L-2-HG, 40 min): 1.033 and 1.012 and 1.025; Emission ratio (0.1 μM L-2-HG, 45 min): 1.028 and 1.004 and 1.026; Emission ratio (0.1 μM L-2-HG, 50 min): 1.037 and 1.012 and 1.035; Emission ratio (0.1 μM L-2-HG, 55 min): 1.031 and 1.006 and 1.033; Emission ratio (0.1 μM L-2-HG, 60 min): 1.022 (2×) and 1.012; Emission ratio (0.1 μM L-2-HG, 65 min): 1.024 and 1.014 and 1.029; Emission ratio (0.1 μM L-2-HG, 70 min): 1.0212 and 1.016 and 1.02; Emission ratio (0.1 μM L-2-HG, 75 min): 1.025 (2×) and 1.033; Emission ratio (0.1 μM L-2-HG, 80 min): 1.031 and 1.009 and 1.021; Emission ratio (0.1 μM L-2-HG, 85 min): 1.0115 and 1.016 and 1.023; Emission ratio (0.1 μM L-2-HG, 90 min): 1.021 (2×) and 1.032; Emission ratio (1 μM L-2-HG, 0 min): 0.9972 and 0.975 and 0.9871; Emission ratio (1 μM L-2-HG, 5 min): 1.009 and 0.9962 and 0.9991; Emission ratio (1 μM L-2-HG, 10 min): 1.023 and 0.9982 and 1.005; Emission ratio (1 μM L-2-HG, 15 min): 1.0208 and 0.9996 and 1.009; Emission ratio (1 μM L-2-HG, 20 min): 1.0328 and 1.012 and 1.019; Emission ratio (1 μM L-2-HG, 25 min): 1.021 and 1.008 and 1.022; Emission ratio (1 μM L-2-HG, 30 min): 1.0327 and 1.008 (2×); Emission ratio (1 μM L-2-HG, 35 min): 1.03 and 0.9986 and 1.019; Emission ratio (1 μM L-2-HG, 40 min): 1.036 and 1.0055 and 1.012; Emission ratio (1 μM L-2-HG, 45 min): 1.034 and 0.9995 and 1.022; Emission ratio (1 μM L-2-HG, 50 min): 1.045 and 1.003 and 1.021; Emission ratio (1 μM L-2-HG, 55 min): 1.024 and 1.003 and 1.034; Emission ratio (1 μM L-2-HG, 60 min): 1.027 and 1.003 and 1.025; Emission ratio (1 μM L-2-HG, 65 min): 1.026 and 0.994 and 1.032; Emission ratio (1 μM L-2-HG, 70 min): 1.026 and 0.9971 and 1.03; Emission ratio (1 μM L-2-HG, 75 min): 1.025 and 1.005 and 1.037; Emission ratio (1 μM L-2-HG, 80 min): 1.033 (2×) and 0.9987; Emission ratio (1 μM L-2-HG, 85 min): 1.013 and 1.0091 and 1.026; Emission ratio (1 μM L-2-HG, 90 min): 1.034 and 1.005 and 1.032; Emission ratio (10 μM L-2-HG, 0 min): 0.9974 and 0.9749 and 0.9795; Emission ratio (10 μM L-2-HG, 5 min): 1.027 and 0.9941 and 0.9973; Emission ratio (10 μM L-2-HG, 10 min): 1.031 and 0.9958 and 1.001; Emission ratio (10 μM L-2-HG, 15 min): 1.0289 and 1.0021 and 1.009; Emission ratio (10 μM L-2-HG, 20 min): 1.045 and 1 and 1.01; Emission ratio (10 μM L-2-HG, 25 min): 1.039 and 0.9977 and 1.015; Emission ratio (10 μM L-2-HG, 30 min): 1.037 and 0.9978 and 1.007; Emission ratio (10 μM L-2-HG, 35 min): 1.04 and 1.003 and 1.015; Emission ratio (10 μM L-2-HG, 40 min): 1.03 and 1 and 1.011; Emission ratio (10 μM L-2-HG, 45 min): 1.029 and 1.001 and 1.0118; Emission ratio (10 μM L-2-HG, 50 min): 1.038 and 1.001 and 1.016; Emission ratio (10 μM L-2-HG, 55 min): 1.018 and 0.9882 and 1.017; Emission ratio (10 μM L-2-HG, 60 min): 1.019 (2×) and 0.997; Emission ratio (10 μM L-2-HG, 65 min): 1.0139 and 0.9961 and 1.023; Emission ratio (10 μM L-2-HG, 70 min): 1.0139 and 0.9946 and 1.028; Emission ratio (10 μM L-2-HG, 75 min): 1.017 and 0.9951 and 1.034; Emission ratio (10 μM L-2-HG, 80 min): 1.022 and 0.9886 and 1.029; Emission ratio (10 μM L-2-HG, 85 min): 1.023 and 0.9843 and 1.034; Emission ratio (10 μM L-2-HG, 90 min): 1.009 and 0.9801 and 1.033; Emission ratio (20 μM L-2-HG, 0 min): 0.9789 and 0.9659 and 0.9802; Emission ratio (20 μM L-2-HG, 5 min): 0.9958 and 0.9868 and 0.9915; Emission ratio (20 μM L-2-HG, 10 min): 1.008 and 0.9945 and 0.999; Emission ratio (20 μM L-2-HG, 15 min): 1.027 and 1.004 and 1.005; Emission ratio (20 μM L-2-HG, 20 min): 1.024 and 1.0082 and 1; Emission ratio (20 μM L-2-HG, 25 min): 1.026 and 1.013 and 1.0078; Emission ratio (20 μM L-2-HG, 30 min): 1.036 and 1.005 and 1.016; Emission ratio (20 μM L-2-HG, 35 min): 1.021 and 1.001 and 1.019; Emission ratio (20 μM L-2-HG, 40 min): 1.043 and 1.002 and 1.018; Emission ratio (20 μM L-2-HG, 45 min): 1.041 and 1.009 and 1.022; Emission ratio (20 μM L-2-HG, 50 min): 1.04 and 1.006 and 1.0167; Emission ratio (20 μM L-2-HG, 55 min): 1.015 and 1.004 and 1.027; Emission ratio (20 μM L-2-HG, 60 min): 1.0355 and 0.9994 and 1.024; Emission ratio (20 μM L-2-HG, 65 min): 1.024 and 1.003 and 1.019; Emission ratio (20 μM L-2-HG, 70 min): 1.023 and 0.9958 and 1.025; Emission ratio (20 μM L-2-HG, 75 min): 1.0243 and 1.007 and 1.0344; Emission ratio (20 μM L-2-HG, 80 min): 1.023 and 0.9899 and 1.029; Emission ratio (20 μM L-2-HG, 85 min): 1.012 and 1.001 and 1.028; Emission ratio (20 μM L-2-HG, 90 min): 1.022 and 0.9961 and 1.035; Emission ratio (100 μM L-2-HG, 0 min): 0.9864 and 0.9735 and 0.9711; Emission ratio (100 μM L-2-HG, 5 min): 1.005 and 0.9924 and 0.9939; Emission ratio (100 μM L-2-HG, 10 min): 1.009 and 1.008 and 1.012; Emission ratio (100 μM L-2-HG, 15 min): 1.0245 and 1.016 and 1.019; Emission ratio (100 μM L-2-HG, 20 min): 1.0318 and 1.022 and 1.0268; Emission ratio (100 μM L-2-HG, 25 min): 1.0276 and 1.029 and 1.024; Emission ratio (100 μM L-2-HG, 30 min): 1.034 and 1.025 and 1.028; Emission ratio (100 μM L-2-HG, 35 min): 1.039 and 1.026 and 1.037; Emission ratio (100 μM L-2-HG, 40 min): 1.0304 and 1.029 and 1.028
